Laboratory results published in patent publication US5403930A, “Substituted salicylic acids” (Pharmacia AB, priority 1991, dated 1995).
Entries after “also recorded” stand apart in the source; their conditions may differ.

How the values were obtained:
human lymphocytes = assay: Concanavalin A-induced proliferation of human lymphocytes ([3H]-thymidine); format: cell-based; settings: Lymphocyte, 72 h, 250 μM test compound, 2.5 μg/ml Concanavalin A, 3 days, 2 experiments
Procedure: (§1) Effect of Compounds on Human Lymphocyte Proliferation Peripheral blood mononuclear cells were isolated from heparinized blood from healthy volunteers by density gradient centrifugation as described by Bain and Pshyk, Transplantation Proc, 4:163-164 (1972). Cell proliferation induced by Concanavalin A was measured in a standard assay such as described in Soderstrom et at., Scand J Immunol, 32:503-516 (1990) using 5% fetal bovine serum in the culture medium. The reaction mixture (final concentrations) consisted of 200 000 cells stimulated with 2.5 μg/ml Concanavalin A and test compounds in a total volume of 0.2 ml. The test compounds were added at the start of the assay, which was run for a total of three days with addition ofradioactive [3H]-thymidine during the last 18 h. Cell bound radioactivity was measured in a liquid scintillation counter.

Human Granulocytes [1] = assay: FMLP-induced superoxide production of human granulocytes, 10 μM test compound; format: cell-based; settings: 10 nM FMLP, 400 000 granulocytes
Procedure: Effects of Test Compounds on Superoxide Production of Human Granulocytes
(§2) Granulocytes were isolated from the heparinized blood from healthy volunteers. The superoxide assay was essentially that of J. M. McCord and I Fridovich (J. Biol. Chem. 244:6049-6055 (1969)) as modified by G Carlin et al. (Pharmacol. Toxicol 65:121-127 (1989)). The reaction mixture contained (final concentrations) 125 μM cytochrome C in Dulbeccos phosphate buffer with Mg and Ca, 10 μM test compound and 400 000 granulocytes treated with 5 μg/ml of cytochalasin B immediately before the experiment. This reaction mixture was preincubated at 37° C. for 10 minutes, whereafter 10 nM N-formyl-L-methionyl-L-leucyl-L-phenylalanine was added to start the reaction, making the final volume 1 ml. After 10 minutes the tubes were centrifuged and the absorbance of the supernatant at 540 and 550 nm was measured. The superoxide production was expressed as the difference in absorbance at these wavelengths.

Human Granulocytes [2] = assay: FMLP-induced superoxide production of human granulocytes, 100 μM test compound; format: cell-based; settings: 100 nM FMLP, 600 000 granulocytes
Procedure: Effects of Test Compounds on Superoxide Production of Human Granulocytes at 100 um Concentration
as §2, with “et at.” for “et al.”, “Ca, 100” for “Ca, 10”, “and 600” for “and 400”, “whereafter 100” for “whereafter 10”

[3] = tested on: human lymphocytes and granulocytes; assay: Overall activity judged from the results of Examples 40 to 42
Procedure: as §1, with “Peripheral” for “Effect of Compounds on Human Lymphocyte Proliferation Peripheral”
as §2
as §2, with “et at.” for “et al.”, “Ca, 100” for “Ca, 10”, “and 600” for “and 400”, “whereafter 100” for “whereafter 10”

T-lymphocytes = settings: cited from earlier work
[4] = rheumatoid arthritis, ulcerative colitis, ankylosing spondylitis, reactive arthritis, psoriasis; cited from earlier work

SMILES | inhibition at 250 µM (human lymphocytes) [%] | inhibition at 10 µM (Human Granulocytes [1]) [%] | inhibition at 100 µM (Human Granulocytes [2]) [%] | Overall activity ranking [3] | Inhibition of activation and proliferation of T-lymphocytes (T-lymphocytes) | Clinical effectiveness in autoimmune diseases [4]
Cc1cccnc1NS(=O)(=O)c1ccc(C#Cc2ccc(O)c(C(=O)O)c2)cc1 [Example 2, 2-Hydroxy-5-[[4-[(3-methyl-2-pyridinylamino)-sulfonyl]phenyl]ethynyl]benzoic acid] | 99.5 | 86 | 94.1 | most active; also recorded: considered to be the best one |  | 
O=C(O)c1cc(C=Cc2ccc(S(=O)(=O)Nc3ncccc3OCc3ccccc3)cc2)ccc1O [Example 16, 2-Hydroxy-5-[2-[4-[[3-(phenylmethoxy)-2-pyridinylamino]sulfonyl]phenyl]ethenyl]benzoic acid] | 95.4 | 94.6 |  | most active |  | 
O=C(O)c1cc(C=Cc2ccc(S(=O)(=O)Nc3ccc(Cl)cn3)cc2)ccc1O [Example 17, 5-[2-[4-[(5-Chloro-2-pyridinylamino)sulfonyl]phenyl]ethenyl]-2hydroxybenzoic acid] | 99.5 | 71.9 |  | most active |  | 
O=C(O)c1cc(C=Cc2ccc(S(=O)(=O)Nc3nc4ccc(F)cc4s3)cc2)ccc1O [Example 21, 2-Hydroxy-5-[2-[4-[[6-fluoro-(2-benzo[d]thiazolyl)]aminosulfonyl]phenyl]ethenyl]benzoic acid] | 99.8 | 93 |  | most active |  | 
CN(c1ccccn1)S(=O)(=O)c1ccc(C=Cc2ccc(O)c(C(=O)O)c2)cc1 [Example 22, 2-Hydroxy-5-[2-[4-[N-methyl-(2-pyridinyl)aminosulfonyl]phenyl]ethenyl]benzoic acid] | 99.8 | 85.5 |  | most active |  | 
O=C(C=Cc1ccc(S(=O)(=O)Nc2ccccn2)cc1)c1ccc(O)c(C(=O)O)c1 [Example 29, 2-Hydroxy-5-[1-oxo-3-[4-[(2-pyridinylamino)sulfonyl]phenyl]-2-propenyl]benzoic acid] | 66 | 33.4 |  |  |  | 
Cc1ccnc(NS(=O)(=O)c2ccc(C#Cc3ccc(O)c(C(=O)O)c3)cc2)c1 [Example 33, 2-Hydroxy-5-[[4-[(4-methyl-2-pyridinyl)amino-sulfonyl]phenyl]ethynyl]benzoic acid] |  |  | 92.1 | most active |  | 
Cc1cccnc1NS(=O)(=O)c1ccc(C#Cc2cc(C(=O)O)c(O)cc2F)cc1 [Example 37, 4-Fluoro-2-hydroxy-5-[[4-[(3-methyl-2-pyridinylamino)sulfonyl]phenyl]ethynyl]benzoic acid] | 100 |  | 97.5 | most active |  | 
Cc1cccnc1NS(=O)(=O)c1ccc(C=Cc2cc(C(=O)O)c(O)cc2F)cc1 [Example 38, 4-Fluoro-2-hydroxy-5-[2-[4-[(3-methyl-2-pyridinylamino)sulfonyl]phenyl]ethenyl]benzoic acid] | 100 |  | 98.7 | most active |  | 
Cc1cccnc1NS(=O)(=O)c1cccc(C#Cc2ccc(O)c(C(=O)O)c2)c1 [Example 39, 2-Hydroxy-5-[[3-[(3-methyl-2-pyridinylamino)sulfonyl]phenyl]ethynyl]benzoicacid] | 100 |  | 93.5 | most active |  | 
O=C(O)c1cc(/N=N/c2ccc(S(=O)(=O)Nc3ccccn3)cc2)ccc1O [Sulfasalazine, reference compound] | 53.7 | 63.5 | 65.4 |  | inhibits activation and proliferation of T-lymphocytes | clinically effective
